Assay results published in patent US20140024663A1, “ATB(0,+) AMINO ACID TRANSPORTER AS A DRUG TARGET FOR TREATMENT OF ESTROGEN RECEPTOR-POSITIVE BREAST CANCER” (GEORGIA HEALTH SCIENCES UNIVERSITY RESEARCH INSTITUTE, INC., priority 2012, published 2014).

Tests used:
MCF7 cells [1] = experiment: Apoptotic cell death by annexin V labeling; type: cell-based, human; details: 48 h
Experimental: (§1) FIGS. 9A to 9D. Influence of α-MT on mTOR activity In FIG. 9A, MCF7 and MB231 cells were treated without or with α-MT (2.5 mM) for 24 h, 48 h, or 72 h, and then the cell lysates were used for western blot. Influence of α-MT with or without 3-MA on cell death. In FIG. 9B, MCF7, MB231, and MCF10A cells were treated for 48 h without or with α-MT (2.5 mM), 3-MA (10 mM), or α-MT (2.5 mM) plus 3-MA (10 mM), and then analyzed for cell death by propidium iodide (PI) staining and FACS-based cell cycle analysis. In FIG. 9C, MCF7 cells were treated for 48 h without or with α-MT (2.5 mM), 3-MA (10 mM), or α-MT (2.5 mM) plus 3-MA (10 mM), and then analyzed for apoptotic cell death by annexin V labeling. In FIG. 9D, MCF7 and MB231 cells were treated without or with 2.5 mM α-MT for 24 h, 48 h, or 72 h. Cell lysates were then used for western blot analysis of lamin A degradation product using an antibody that recognizes specifically the proteolytic cleavage product. β-Actin was used as an internal control.
(§2) Apoptosis assay. Fluorescence-activated cell sorting (FACS) was used to monitor cell death. MCF7 cells were treated with or without α-MT, 3-MA, or α-MT plus 3-MA. Control and treated cells were then fixed in 50% ethanol, treated with 0.1% sodium citrate, 1 mg/ml RNase A, and 50 μg/ml propidium iodide, and then subjected to FACS analysis (FACS Caliber, Becton Dickinson). FITC-labeled annexin V was used to differentiate apoptotic cell death from necrotic cell death.

MCF7 cells [2] = experiment: Analysis of autophagy (LC3 localization, electron microscopy, autophagosomal proteolysis, GFP-LC3); type: cell-based, human; details: 48 h
Experimental: FIGS. 6A to 6C. Effects of SLC6A14 blockade with α-MT in breast cancer cells. In FIG. 6A, MCF10A (a non-malignant mammary epithelial cell line), MCF7 (an ER-positive breast cancer cell line), and MB231 (an ER-negative breast cancer cell line) cells were treated with or without 2.5 mM α-MT for 24, 48, or 72 h and then used for analysis of asparagine synthetase (ASNS) and CHOP mRNA levels. In FIG. 6B, MCF7, MB231 and MCF10A cells were treated with or without 2.5 mM α-MT for 48 h and then used for immunocytochemical analysis of the constitutively expressed LC-3. In FIG. 6C, MCF7 cells were treated with (“b” and “c”) or without (“a”) α-MT (2.5 mM) for 48 h and then used for electron microscopy. Arrows indicate sequestration of cytoplasm and organelles in pre-autophagosomes and autophagosome, and the asterisk indicates condensed chromatin. N, nucleus.
FIGS. 7A and 7B. Induction of autophagy in MCF7 cells by α-MT. […] The concentrations of α-MT and 3-MA, when present, were 2.5 mM and 10 mM. The treatment time was 48 h. The extent of proteolysis was determined by the radioactivity present in the protein-free supernatant. […] In FIG. 7B, MCF7 cells were transfected with an GFP-LC3 expression plasmid, and 24 h later, the cells were treated with or without α-MT (2.5 mM) in the presence or absence of 3-MA (10 mM) for 48 h. At the end of the treatment, cells were fixed, and the percent of cells with punctate localization of the ectopically expressed GFP-LC3 was quantified. “a” represents compared to control; “b” represents compared to treatment with α-MT alone; and “c” represents compared to treatment with […]; *, p<0.001.
Analysis of autophagy. Autophagy was analyzed as described previously (Periyasamy-Thandavan et al., 2010, Autophagy; 6:19-35; and Samaddar et al., 2008, Mol Cancer Ther; 7:2977-2987) by monitoring the localization pattern of constitutively expressed LC3 as well as that of ectopically expressed GFP-LC3. In the case of the constitutively expressed LC3, cells were treated without or with α-MT, and then used for immunocytochemical analysis of LC3 localization pattern. For ectopically expressed LC3, cells were transfected with a GFP-LC3 expression plasmid. Briefly, cells were plated on a coverslip to reach ˜50% confluence and transfection of these cells was done with 1 μg of the plasmid using FuGENE transfection reagent (Roche, Nutley, N.J.). […] At the end of the treatment, cells were fixed with 4% paraformaldehyde and examined by fluorescence microscopy to count the number of cells with punctate GFP-LC3. Autophagosomal proteolysis was quantified as described previously (Periyasamy-Thandavan et al., 2010, Autophagy; 6:19-35). […]

MB231 cells = experiment: Cell death by propidium iodide staining and FACS cell cycle analysis; type: cell-based, human; details: MB231, α-MT 2.5 mM and 3-MA 10 mM, either alone or together, 48 h
Experimental: as §1, §2

MCF10A cells = experiment: as above; type: cell-based, human; details: α-MT 2.5 mM and 3-MA 10 mM, either alone or together, 48 h
Experimental: as §1, §2

Human SLC6A14 = target: T1, Human SLC6A14 (Homo sapiens, UniProt Q9UN76); experiment: SLC6A14 transport function in X. laevis oocytes (two-microelectrode voltage-clamp); type: cell-based; details: for Hill coefficient of Na+-activation kinetics (number of Na+ involved in the activation process): SLC6A14-mediated transport, amino acid 1 mM, Cl- constant at 100 mM, three oocytes; for inward currents on perifusion of SLC6A14-expressing oocytes: amino acid 100 M (so in the source), in the presence of NaCl
T1 construct: expressed in transfected cells; host or cells: Xenopus laevis oocytes, microinjected with human SLC6A14 cRNA
T1 sequence (Q9UN76 1-642): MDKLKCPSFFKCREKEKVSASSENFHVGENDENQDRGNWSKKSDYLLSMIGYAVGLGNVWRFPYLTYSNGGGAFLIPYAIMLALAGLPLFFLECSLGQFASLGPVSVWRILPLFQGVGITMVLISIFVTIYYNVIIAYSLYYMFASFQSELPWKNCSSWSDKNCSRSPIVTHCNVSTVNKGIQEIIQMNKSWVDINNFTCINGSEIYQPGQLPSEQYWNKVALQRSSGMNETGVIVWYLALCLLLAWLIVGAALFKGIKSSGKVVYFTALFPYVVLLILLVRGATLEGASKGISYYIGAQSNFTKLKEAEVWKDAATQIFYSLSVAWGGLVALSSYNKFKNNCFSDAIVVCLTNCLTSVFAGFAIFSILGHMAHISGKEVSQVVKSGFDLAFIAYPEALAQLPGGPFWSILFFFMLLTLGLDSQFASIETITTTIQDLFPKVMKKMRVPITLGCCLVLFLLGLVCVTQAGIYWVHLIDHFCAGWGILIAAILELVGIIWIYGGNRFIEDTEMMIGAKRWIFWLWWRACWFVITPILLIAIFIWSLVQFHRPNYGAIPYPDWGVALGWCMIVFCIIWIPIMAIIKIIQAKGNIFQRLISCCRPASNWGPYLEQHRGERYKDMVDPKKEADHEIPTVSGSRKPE
Source text: FIGS. 3A and 3B. Natactivation kinetics of SLC6A14-mediated transport of leucine (FIG. 3A) and arginine and glutamine (FIG. 3B). Human SLC6A14 was expressed heterologously in X. laevis oocytes by microinjection of cRNA. Four days following injection, oocytes were used for electrophysiological studies using the two-microelectrode voltage-clamp method. […] Since the expression levels varied from oocyte to oocyte resulting in varying magnitudes of amino acid-induced currents, the currents were normalized by taking the magnitude of the currents induced at 100 mM Na^+ as 1 in each oocyte and calculating the magnitude of the currents induced at other concentrations of Na^+ as a fraction of this maximal current. The experiments were done with three different oocytes and the results are given as means±SE. Insets, Hill plots.
FIG. 4. Cl^−-activation kinetics of SLC6A14-mediated transport of leucine, arginine, and glutamine. […] The experiments were done with three different oocytes and the results are given as means±SE.
FIGS. 5A to 5C. Blockade of SLC6A14-mediated transport of leucine (FIG. 5A), glutamine (FIG. 5B), and arginine (FIG. 5C) by α-MT. Oocytes injected with human SLC6A14 cRNA were perifused with 100 µM leucine, 100 μM glutamine, or 100 μM arginine under varying experimental conditions as indicated.
Analysis of SLC6A14 transport function in X. laevis oocytes. SLC6A14-mediated transport of leucine, glutamine, and arginine and its blockade by α-MT were studied using the X. laevis oocyte heterologous expression system as described previously (Hatanaka et al., 2001, J Clin Invest; 107:1035-1043; and Karunakaran et al., 2008, Biochem J; 414:343-355). Human cloned SLC6A14 cDNA was used in these studies.

Hill coefficient of Na+-activation kinetics (number of Na+ involved in the activation process) (Human SLC6A14)	inward currents on perifusion of SLC6A14-expressing oocytes (Human SLC6A14)	SMILES	apoptotic cell death by annexin V labeling (MCF7 cells [1]; MCF7, 3-MA 10 mM combined with α-MT 2.5 mM, compared with either agent alone)	apoptotic cell death by annexin V labeling (MCF7 cells [1]; MCF7, single agent (α-MT 2.5 mM or 3-MA 10 mM))	inhibition of α-MT-induced proteolysis of 14C-labeled proteins (MCF7 cells [2]; MCF7, cotreatment 3-MA 10 mM with α-MT 2.5 mM)	block of autophagy induced by α-MT (MCF7 cells [2]; MCF7 transfected with GFP-LC3, 3-MA 10 mM plus α-MT 2.5 mM) [%]	effect on cell death (MB231 cells)	effect on cell death (MCF10A cells)
–	–	Cn1cnc(N)c2ncnc1-2 [3-MA, 3-methyladenine, reference compound]	much greater	significant apoptosis	inhibited significantly	> 90	very little, if any, effect	very little, if any, effect
2.4	induced inward currents	NC(=O)CC[C@H](N)C(=O)O [glutamine]	–	–	–	–	–	–
2.2	induced inward currents	CC(C)C[C@H](N)C(=O)O [leucine]	–	–	–	–	–	–

SMILES	Hill coefficient of Na+-activation kinetics (number of Na+ involved in the activation process) (Human SLC6A14)	inward currents on perifusion of SLC6A14-expressing oocytes (Human SLC6A14)	apoptotic cell death by annexin V labeling (MCF7 cells [1]; MCF7, 3-MA 10 mM combined with α-MT 2.5 mM, compared with either agent alone)	apoptotic cell death by annexin V labeling (MCF7 cells [1]; MCF7, single agent (α-MT 2.5 mM or 3-MA 10 mM))	inhibition of α-MT-induced proteolysis of 14C-labeled proteins (MCF7 cells [2]; MCF7, cotreatment 3-MA 10 mM with α-MT 2.5 mM)	block of autophagy induced by α-MT (MCF7 cells [2]; MCF7 transfected with GFP-LC3, 3-MA 10 mM plus α-MT 2.5 mM) [%]	effect on cell death (MB231 cells)	effect on cell death (MCF10A cells)
N=C(N)NCCC[C@H](N)C(=O)O [arginine]	2.1	induced inward currents	–	–	–	–	–	–
